The results in this text go back to US7169785B2, “Methods and compositions of novel triazine compounds” (Reddy US Therapeutics, Inc., priority 2001, dated 2007).

The term IC50 denotes the concentration that gives 50% inhibition.

Structures are written as SMILES.

The subject of the first test is IL-6. Put plainly: TNF-α-induced IL-6 production determined by IL-6 ELISA in HAEC. Type of test: cell-based, human. The conditions noted are these: Compds tested @ 10 uM, HAEC. The method, then: Human aortic endothelial cells (HAEC, Clonetics) were cultured according to manufacturer in growth medium (Clonetics): basal medium containing human epidermal growth factor, hydrocortisone, vascular endothelial growth factor, heparin binding growth factor-B, long R3-insulin-like growth factor-1, ascorbic acid, gentamicin/amphotericin and 5% FBS. These cell were allowed to reach at least 90% confluency before subjected to experimental treatments. Glycated human serum albumin (G-HSA) was from US Biologicals. Tumor necrosis factor α was from R&D Systems.
[…] All treatments, compound-added and controls were carried out in serum free media containing 0.2% albumin. Media from all conditions were collected and used for IL-6 ELISA.
IL-6 ELISA was carried out using human IL-6 DuoSet ELISA development kit as described by manufacturer (R&D Systems). Mouse anti-human Il-6 was used as the capture antibody (2 ug/ml) and biotinylated goat anti-human IL-6 (200 ng/ml) was used as the detection antibody. Culture media were incubated with capture antibody (in 96 well) for 2 h at room temperature. Wells were washed three times with wash buffer (0.05% tween-20 in phosphate buffered saline (PBS) pH 7.4) followed by incubation with detection antibody for 2 h at room temperature. Following three washes wells were incubated with Streptavidin-HRP for 20 min. Color development was read at 450 nm in a Microplate reader.
Background: In an ELISA, binding on a coated surface is turned into a signal by an enzyme label.
For the compound `CN1CCC(N(C)c2nc(Nc3ccc4ccccc4c3)nc(NC3CCCCCC3)n2)CC1` [Compound 172, N-Cycloheptyl-N′-methyl-N′-(1-methyl-piperidin-4-yl)-N″-naphthalen-2-yl-[1,3,5]triazine-2,4,6-triamine], the “% IL6 production compare to TNF stimulation to IL6 (100%)” value (“% IL6 production compare” for short) is given as 18%.

Turning to `COc1ccc(Nc2nc(NC3CCCCCC3)nc(N(C)Cc3ccccc3)n2)cc1` [Compound 178, N-Benzyl-N′-cycloheptyl-N″-(4-methoxy-phenyl)-N-methyl-[1,3,5]triazine-2,4,6-triamine], the “% IL6 production compare” value is on record as 19%. The same measure, in the same setting: under `c1ccc(Nc2nc(NC3CCCCCC3)nc(N3CCOCC3)n2)cc1` [Compound 176, N-Cycloheptyl-6-morpholin-4-yl-N′-phenyl-[1,3,5]triazine-2,4-diamine] stands 33%.

Turning to `c1ccc2cc(Nc3nc(NC4CCCCCC4)nc(N4CCOCC4)n3)ccc2c1` [Compound 174, N-Cycloheptyl-6-morpholin-4-yl-N′-naphthalen-2-yl-[1,3,5]triazine-2,4-diamine], the “% IL6 production compare” value stood at 34%.

For `COc1ccc(Nc2nc(N3CCOCC3)nc(N3CCN(Cc4ccccc4)CC3)n2)cc1` [Compound 173, [4-(4-Benzyl-piperazin-1-yl)-6-morpholin-4-yl-[1,3,5]triazin-2-yl]-(4-methoxy-phenyl)-amine], the “% IL6 production compare” value was 47%.

Staying with this test, now noted: HAEC; class of % of control IL6 production.
Turning to `CCCCN(CCC)c1nc(Nc2ccc(OC)c(Cl)c2)nc(N(C)C2CCNCC2)n1` [Compound 112, N^2-Butyl-N^4-(3-chloro-4-methoxy-phenyl)-N^6-methyl-N^6-piperidin-4-yl-N^2-propyl-1,3,5-triazine-2,4,6-triamine], the “Inhibition of TNF-induced IL6 production” value is “+ (between about 75 and 100% of control IL6 production)”. Still for that read-out and setting: under `CCCCN(CCC)c1nc(Nc2ccc(OC)c(Cl)c2)nc(N(C)C2CCN(C)CC2)n1` [Compound 111, N-Butyl-N′-(3-chloro-4-methoxy-phenyl)-N″-methyl-N″-(1-methyl-piperidin-4-yl)-N-propyl-[1,3,5]triazine-2,4,6-triamine] stands “+ (between about 75 and 100% of control IL6 production)”; under `COc1ccc(Nc2nc(NCCCCCO)nc(N(C)C3CCN(C)CC3)n2)cc1Cl` [Compound 108, 5-{4-(3-Chloro-4-methoxy-phenylamino)-6-[methyl-(1-methyl-piperidin-4-yl)-amino]-[1,3,5]triazin-2-ylamino}-pentan-1-ol], “+++ (between about 25 and about 50% of control IL6 production)”.

The test is the same for the next values; noted with them: Homo sapiens, 24 h, read-out: % IL6 production compare to TNF stimulation of IL6 (100%), @ 5 uM; HAEC, IL6.
As to `CCCCN(CCC)c1nc(Nc2ccc(OC)c(Cl)c2)nc(N(C)C2CCNCC2)n1` [Compound 112, N^2-Butyl-N^4-(3-chloro-4-methoxy-phenyl)-N^6-methyl-N^6-piperidin-4-yl-N^2-propyl-1,3,5-triazine-2,4,6-triamine], the activity at 5 µM is 90%.

Consider `CCCCN(CCC)c1nc(Nc2ccc(OC)c(Cl)c2)nc(N(C)C2CCN(C)CC2)n1` [Compound 111, N-Butyl-N′-(3-chloro-4-methoxy-phenyl)-N″-methyl-N″-(1-methyl-piperidin-4-yl)-N-propyl-[1,3,5]triazine-2,4,6-triamine], for which the activity at 5 µM came to 46%.

The same test, now with this note: Homo sapiens, 24 h, read-out: % IL6 production compare to TNF stimulation of IL6 (100%), Compds tested @ 10 uM; HAEC, IL6.
Take `CCCCN(CCC)c1nc(Nc2ccc(OC)c(Cl)c2)nc(N(C)C2CCN(C)CC2)n1` [Compound 111, N-Butyl-N′-(3-chloro-4-methoxy-phenyl)-N″-methyl-N″-(1-methyl-piperidin-4-yl)-N-propyl-[1,3,5]triazine-2,4,6-triamine]: the activity at 10 µM was > 90%.

`COc1ccc(Nc2nc(NCCCCCO)nc(N(C)C3CCN(C)CC3)n2)cc1Cl` [Compound 108, 5-{4-(3-Chloro-4-methoxy-phenylamino)-6-[methyl-(1-methyl-piperidin-4-yl)-amino]-[1,3,5]triazin-2-ylamino}-pentan-1-ol]: the activity at 10 µM came to 25%.

Staying with this test, now noted: Homo sapiens, 24 h; Compds tested @ 10 uM; HAEC, IL6; read-out: % IL6 production compare to TNF stimulation of IL6 (100%).
`CCN1CCCC1CNc1nc(Nc2ccc(N3CCN(C)CC3)cc2)nc(NC2CCCCCC2)n1` (centres unmarked) [Compound 28, N^2-cycloheptyl-N^4-[(1-ethyl-2-pyrrolidinyl)methyl]-N^6-[4-(4-methyl-1-piperazinyl)phenyl]-1,3,5-triazine-2,4,6-triamine]: the activity at 10 µM worked out at 23%. The same measure, in the same setting: with `COc1ccc(Nc2nc(NC3CCCCCC3)nc(NC(C)(C)C)n2)cc1F` [Compound 77, N^2-(tert-butyl)-N^4-cycloheptyl-N^6-(3-fluoro-4-methoxyphenyl)-1,3,5-triazine-2,4,6-triamine] the figure was 21%; with `CCN1CCCC1CNc1nc(Nc2ccc(OC)c(F)c2)nc(NC2CCCCC2)n1` (centres unmarked) [Compound 55, N^2-cyclohexyl-N^4-[(1-ethyl-2-pyrrolidinyl)methyl]-N^6-(3-fluoro-4-methoxyphenyl)-1,3,5-triazine-2,4,6-triamine], 1%; with `COc1ccc(Nc2nc(NCc3ccccc3)nc(NC3CCCCCC3)n2)cc1F` [Compound 78, N^2-benzyl-N^4-cycloheptyl-N^6-(3-fluoro-4-methoxyphenyl)-1,3,5-triazine-2,4,6-triamine], 47%.

For the compound `CCN1CCCC1CNc1nc(Nc2ccc(OC)c(F)c2)nc(NC2CCCC2)n1` (centres unmarked) [Compound 56, N^2-cyclopentyl-N^4-[(1-ethyl-2-pyrrolidinyl)methyl]-N^6-(3-fluoro-4-methoxyphenyl)-1,3,5-triazine-2,4,6-triamine], the activity at 10 µM is 1%.

`CCNc1nc(NCC2CCCN2CC)nc(Nc2ccc(OC)c(F)c2)n1` (centres unmarked) [Compound 51, N^2-ethyl-N^4-[(1-ethyl-2-pyrrolidinyl)methyl]-N^6-(3-fluoro-4-methoxyphenyl)-1,3,5-triazine-2,4,6-triamine]: the activity at 10 µM came to 1%. In the case of `CCN1CCC[C@@H]1CNc1nc(NCC2CCCCC2)nc(Nc2ccc(OC)c(F)c2)n1` [Compound 142, N^2-cyclohexylmethyl-N^4-((R)-1-ethyl-pyrrolidin-2-ylmethyl)-N^6-(3-fluoro-4-methoxyphenyl)-1,3,5-triazine-2,4,6-triamine], the activity at 10 µM stood at 21.6%. On the same count and under the same terms, under `CCN1CCC[C@H]1CNc1nc(NCC2CCCCC2)nc(Nc2ccc(OC)c(F)c2)n1` [Compound 141, N^2-cyclohexylmethyl-N^4-((S)-1-ethyl-pyrrolidin-2-ylmethyl)-N^6-(3-fluoro-4-methoxyphenyl)-1,3,5-triazine-2,4,6-triamine] stands 23.4%; under `COc1ccc(Nc2nc(NC3CCCCCC3)nc(N3CCCC4CCCCC43)n2)cc1F` (centres unmarked) [Compound 84, N^2-cycloheptyl-N^4-(3-fluoro-4-methoxyphenyl)-6-octahydro-1(2H)-quinolinyl-1,3,5-triazine-2,4-diamine], 33%. As to `CCN1CCC[C@H]1CNc1nc(NC2CCCCCC2)nc(N(CC#N)c2ccccc2)n1` [Compound 143, ({4-cycloheptylamino-6-[((S)-1-ethyl-pyrrolidin-2-ylmethyl)-amino]-1,3,5-triazin-2-yl}-phenyl-amino)-acetonitrile], the activity at 10 µM was determined as 18.9%.

In the case of `COc1ccc(Nc2nc(NC3CCCCCC3)nc(N3CCN(C(C)=O)CC3)n2)cc1F` [Compound 88, 6-(4-acetyl-1-piperazinyl)-N^2-cycloheptyl-N^4-(3-fluoro-4-methoxyphenyl)-1,3,5-triazine-2,4-diamine], the activity at 10 µM was found to be 19%. For `CCN1CCCC1CNc1nc(Nc2ccc(OC)c(F)c2)nc(N2CCN(C(C)=O)CC2)n1` (centres unmarked) [Compound 63, 6-(4-acetyl-1-piperazinyl)-N^2-[(1-ethyl-2-pyrrolidinyl)methyl]-N^4-(3-fluoro-4-methoxyphenyl)-1,3,5-triazine-2,4-diamine], the activity at 10 µM stood at 26%. The same measure, in the same setting: with `COc1ccc(Nc2nc(NCc3ccco3)nc(NC3CCCCCC3)n2)cc1F` [Compound 91, N^2-cycloheptyl-N^4-(3-fluoro-4-methoxyphenyl)-N^6-(2-furanylmethyl)-1,3,5-triazine-2,4,6-triamine] the figure was 28%; with `CCN1CCCC1CNc1nc(Nc2ccc(OC)c(F)c2)nc(NC2CCC(C)CC2)n1` (centres unmarked) [Compound 60, N^2-[(1-ethyl-2-pyrrolidinyl)methyl]-N^4-(3-fluoro-4-methoxyphenyl)-N^6-(4-methylcyclohexyl)-1,3,5-triazine-2,4,6-triamine], 1%; with `COc1ccc(Nc2nc(NCCN3CCCCC3)nc(NC3CCCCCC3)n2)cc1F` [Compound 96, N^2-cycloheptyl-N^4-(3-fluoro-4-methoxyphenyl)-N^6-[2-(1-piperidinyl)ethyl]-1,3,5-triazine-2,4,6-triamine], 6%. On the same count and under the same terms, under `COc1ccc(Nc2nc(NC3CC3)nc(NC3CC3)n2)cc1F` [Compound 157, N,N′-dicyclopropyl-N″-(3-fluoro-4-methoxy-phenyl)-1,3,5-triazine-2,4,6-triamine] stands 60.5%; under `COc1ccc(Nc2nc(NC3CCCCCC3)nc(N3CCCCCC3)n2)cc1F` [Compound 83, N^2-cycloheptyl-N^4-(3-fluoro-4-methoxyphenyl)-6-hexahydro-1H-azepin-1-yl-1,3,5-triazine-2,4-diamine], 18%; under `COC[C@@H]1CCCN1c1nc(Nc2ccc(OC)c(F)c2)nc(NC2CCCCCC2)n1` [Compound 86, N^2-cycloheptyl-N^4-(3-fluoro-4-methoxyphenyl)-6-[(2S)-2-(methoxymethyl)-1-pyrrolidinyl]-1,3,5-triazine-2,4-diamine], 19%. The same measure, in the same setting: with `CCOC(=O)N1CCN(c2nc(NCC3CCCN3CC)nc(Nc3ccc(OC)c(F)c3)n2)CC1` (centres unmarked) [Compound 64, Ethyl 4-{4-{[(1-ethyl-2-pyrrolidinyl)methyl]amino}-N^6-[(3-fluoro-4-methoxyphenyl)amino]-1,3,5-triazin-2-yl}-1-piperazinecarboxylate] the figure was 23%.

Still in this test, the particulars now being: Homo sapiens; HAEC, IL6; unit inferred; read-out: IC50 (TNF stimulation of IL6).
`CCN1CCCC1CNc1nc(Nc2ccc(OC)c(Cl)c2)nc(NC2CCCCCC2)n1` (centres unmarked) [Compound 48, N^2-(3-chloro-4-methoxyphenyl)-N^4-cycloheptyl-N^6-[(1-ethyl-2-pyrrolidinyl)methyl]-1,3,5-triazine-2,4,6-triamine]: the half-maximal inhibitory concentration (IC50) is 4.3 µM.
